Source: PMC9221509, “Discovery of a Novel Antimicrobial Peptide, Temporin-PKE, from the Skin Secretion of Pelophylax kl. esculentus, and Evaluation of Its Structure-Activity Relationships” (Biomolecules, 2022)
Values after ≈ are worked out from the molar mass of the structure shown. Values belong to the compound of their own block, whether it stands above or below them.

Tests used:
Experiment in all cases: microbe, parasite or virus in culture
[1] = test system: P. aeruginosa (B004 V2S2 B); assay type: cell-based, Pseudomonas aeruginosa; conditions: Pseudomonas aeruginosa, clinical strain, 15 replicates in three independent assays
Procedure: (§1) The antimicrobial activities of peptides were evaluated against the Gram-positive bacteria, S. aureus (ATCC 6538), methicillin-resistant Staphylococcus aureus (MRSA) (NCTC 12493), Enterococcus faecalis (E. faecalis) (NCTC 12697); the Gram-negative bacteria, E. coli (ATCC CRM 8739), Klebsiella pneumoniae (K. pneumoniae) (ATCC 43816), Pseudomonas aeruginosa (P. aeruginosa) (ATCC CRM 9027); and the yeast, Candida albicans (C. albicans) (ATCC CRM 10231). Clinical isolates of MRSA (B042 V2E1 A), E. coli (ATCC BAA-2340), K. pneumoniae (ATCC BAA-1705), and P. aeruginosa (B004 V2S2 B) were also used to determine their antimicrobial activities. The suspension of microorganisms in the logarithmic growth phase with a specific final density (Gram-negative and Gram-positive bacteria: 5 × 10^5 CFU/mL; yeast: 1 × 10^6 CFU/mL) was incubated with different peptide concentrations from 1 µM to 512 µM at 37 °C for 24 h. PBS was used as the negative control, and norfloxacin and amphotericin B were selected as the positive control for bacteria and yeast, respectively. Since the Norfloxacin had weak activities against P. aeruginosa (B004 V2S2 B) and K. pneumoniae (ATCC BAA 1705), gentamicin was used as the positive control for these two bacterial strains. The absorbance of each well was obtained using a microplate reader (EL808, Biolise BioTek, Winooski, VT, USA) set at 550 nm wavelength. The MIC value was the lowest concentration of a peptide that inhibits visible bacterial growth. Once the MIC values were determined, an aliquot from the bacterial culture exposed to the peptide at or above its MIC value was inoculated on a Mueller Hinton agar (MHA) and was incubated at 37 for 18 h. The MBC value was the lowest concentration of a peptide that kills 99.9% of bacteria.

[2] = test system: K. pneumoniae (ATCC BAA-1705); assay type: cell-based, Klebsiella pneumoniae; conditions: Klebsiella pneumoniae, ATCCBAA1705, clinical strain, 15 replicates in three independent assays
Procedure: as §1

[3] = test system: C. albicans (ATCC CRM 10231); assay type: cell-based, Candida albicans; conditions: 15 replicates in three independent assays
Procedure: as §1

[4] = test system: P. aeruginosa (ATCC CRM 9027); assay type: cell-based, Pseudomonas aeruginosa; conditions: Pseudomonas aeruginosa, 15 replicates in three independent assays
Procedure: as §1

E. faecalis (NCTC 12697) = assay type: cell-based, Enterococcus faecalis; conditions: Enterococcus faecalis, NCTC12697, 15 replicates in three independent assays
Procedure: as §1

S. aureus (ATCC 6538) = assay type: cell-based, Staphylococcus aureus; conditions: Staphylococcus aureus, ATCC6538, 15 replicates in three independent assays
Procedure: as §1

E. coli (ATCC BAA-2340) = assay type: cell-based, Escherichia coli; conditions: Escherichia coli, ATCCBAA2340, clinical strain, 15 replicates in three independent assays
Procedure: as §1

E. coli (ATCC CRM 8739) = assay type: cell-based, Escherichia coli; conditions: Escherichia coli, 15 replicates in three independent assays
Procedure: as §1

MRSA (NCTC 12493) = assay type: cell-based, methicillin-resistant Staphylococcus aureus; conditions: Staphylococcus aureus, 15 replicates in three independent assays
Procedure: as §1

MRSA (B042 V2E1 A) = assay type: cell-based, methicillin-resistant Staphylococcus aureus; conditions: Staphylococcus aureus, MRSA, clinical strain, 15 replicates in three independent assays
Procedure: as §1

[5] = test system: K. pneumoniae (ATCC 43816); assay type: cell-based, Klebsiella pneumoniae; conditions: Klebsiella pneumoniae, ATCC43816, 15 replicates in three independent assays
Procedure: as §1

[6] = 5 × 10^5 CFU/mL, 37 °C, 24 h, 1-512 µM, absorbance 550 nm, read-out: MIC
[7] = aliquot plated on MHA, 18 h, kills 99.9%, read-out: MBC

MIC [1, 6]: 1 µM (≈ 0.478 µg/mL) | MIC [2, 6]: 2 µM (≈ 0.955 µg/mL)
SMILES: CNC(C)C1CCC(N)C(OC2C(N)CC(N)C(OC3OCC(C)(O)C(NC)C3O)C2O)O1 (stereo not shown) [Gentamicin, reference compound]
MBC [1, 7]: 1 µM (≈ 0.478 µg/mL) | MBC [2, 7]: 2 µM (≈ 0.955 µg/mL)

MIC ([3]; yeast 1 × 10^6 CFU/mL, 37 °C, 24 h, 1-512 µM, absorbance 550 nm, read-out: MIC): 4 µM (≈ 3.7 µg/mL)
SMILES: C[C@@H]1[C@H](O)[C@@H](C)/C=C/C=C/C=C/C=C/C=C/C=C/C=C/[C@H](O[C@@H]2O[C@H](C)[C@@H](O)[C@H](N)[C@@H]2O)C[C@@H]2O[C@](O)(C[C@@H](O)C[C@@H](O)[C@H](O)CC[C@@H](O)C[C@@H](O)CC(=O)O[C@H]1C)C[C@H](O)[C@H]2C(=O)O [amphotericin B, reference compound]
MBC ([3]; Candida albicans, aliquot plated on MHA, 18 h, kills 99.9%, read-out: MBC): 4 µM (≈ 3.7 µg/mL)

MIC [4, 6]: 2 µM (≈ 0.639 µg/mL) | MIC (E. faecalis (NCTC 12697); [6]): 4 µM (≈ 1.28 µg/mL) | MIC (S. aureus (ATCC 6538); [6]): 2 µM (≈ 0.639 µg/mL) | MIC (E. coli (ATCC BAA-2340); [6]): 2 µM (≈ 0.639 µg/mL) | MIC (E. coli (ATCC CRM 8739); [6]): 1 µM (≈ 0.319 µg/mL) | MIC (MRSA (NCTC 12493); [6]): 2 µM (≈ 0.639 µg/mL) | MIC (MRSA (B042 V2E1 A); [6]): 2 µM (≈ 0.639 µg/mL) | MIC [5, 6]: 2 µM (≈ 0.639 µg/mL)
SMILES: CCn1cc(C(=O)O)c(=O)c2cc(F)c(N3CCNCC3)cc21 [Norfloxacin, reference compound]
MBC [4, 7]: 2 µM (≈ 0.639 µg/mL) | MBC (E. faecalis (NCTC 12697); [7]): 4 µM (≈ 1.28 µg/mL) | MBC (S. aureus (ATCC 6538); aliquot plated on MHA, 18 h, kills 99.9% of bacteria, read-out: MBC): 2 µM (≈ 0.639 µg/mL) | MBC (E. coli (ATCC BAA-2340); [7]): 2 µM (≈ 0.639 µg/mL) | MBC (E. coli (ATCC CRM 8739); [7]): 1 µM (≈ 0.319 µg/mL) | MBC (MRSA (NCTC 12493); [7]): 2 µM (≈ 0.639 µg/mL) | MBC (MRSA (B042 V2E1 A); [7]): 2 µM (≈ 0.639 µg/mL) | MBC [5, 7]: 2 µM (≈ 0.639 µg/mL)
